For two compounds, Activity and IC50 results are on record in ChEMBL document CHEMBL4024733, “An unusual spinaceamine-bearing pregnane from a soft coral Scleronephthya sp. inhibits the migration of tumor cells” (Bioorg Med Chem Lett, 2017).

pIC50: −log10 of the molar value.

Format in all cases: functional, cell-based
For assay [1], the system named is B16. Put plainly: Antimigratory activity against mouse B16 cells after 24 hrs by crystal violet staining based inverted microscopic method.
The test system of the next assay is A549. In words: Antimigratory activity against human A549 cells after 24 hrs by crystal violet staining based inverted microscopic method.
For assay [2], the system named is B16. In words: Antimigratory activity against mouse B16 cells assessed as decrease in TGFbeta mRNA level by SYBR staining based real-time qPCR assay. (In general: In qPCR the cycle at which signal appears reflects the starting amount.)
Assay [3] concerns B16. Put plainly: Antimigratory activity against mouse B16 cells assessed as decrease in TNFalpha mRNA level by SYBR staining based real-time qPCR assay.
For assay [4], the system named is B16. Put plainly: Antimigratory activity against mouse B16 cells assessed as decrease in IL-1beta mRNA level by SYBR staining based real-time qPCR assay.
The subject of assay [5] is B16. In words: Antimigratory activity against mouse B16 cells assessed as decrease in IL-6 mRNA level by SYBR staining based real-time qPCR assay.
Assay [6] relates to B16. Put plainly: Antimigratory activity against mouse B16 cells assessed as inhibition of MMP2 mRNA level after 24 hrs by SYBR staining based real-time qPCR assay. As to conditions: B16, 24 h.
The test system of assay [7] is B16. In words: Antimigratory activity against mouse B16 cells assessed as inhibition of MMP9 mRNA level after 24 hrs by SYBR staining based real-time qPCR assay. As to conditions: B16, 24 h.
For assay [8], the system named is B16. Put plainly: Antimigratory activity against mouse B16 cells assessed as inhibition of VEGF mRNA level after 24 hrs by SYBR staining based real-time qPCR assay. As to conditions: B16, 24 h.

As for `C=C[C@H]1CC[C@H]2[C@@H]3CC[C@H]4CC(=O)/C(=C5\NCCc6nc[nH]c65)C(=O)[C@]4(C)[C@H]3CC[C@]12C`, the Activity entry in the assay with B16 [1], in the assay with A549, in the assay with B16 [2], with B16 [3], in the assay with B16 [4] and in the assay on B16 [5] was “Dose-dependent effect” each time. Further, the pIC50 in the assay on B16 [6] is 5.18; in the assay with B16 [7], 5.28; in the assay with B16 [8], 5.08.
On to `C=C[C@H]1CC[C@H]2[C@@H]3CC[C@H]4CC(=O)/C(=C5\NC=Cc6nc[nH]c65)C(=O)[C@]4(C)[C@H]3CC[C@]12C`, for which the Activity entry with B16 [1], in the assay on A549, in the assay on B16 [2], in the assay on B16 [3], in the assay with B16 [4] and in the assay on B16 [5] was “Dose-dependent effect” throughout. Further, the negative-log IC50 (pIC50) is 5.24 in the assay with B16 [6], 4.91 with B16 [7] and 5.12 in the assay with B16 [8].

The term pIC50 denotes the negative decadic logarithm of the IC50, by convention in mol/L.
